{
  "source": "paper PMC11591356",
  "about": "“Immunomodulatory Effects of the Tobacco Defensin NaD1” (Antibiotics, 2024)",
  "key": {"[1]": {"system": "PBMCs", "conditions": "cited from earlier work", "method": "(§1) The human cathelicidin LL-37 has been previously shown to have a toxic effect on PBMCs at the concentration of 12 µM [20]."}, "[2]": {"system": "Caco-2 cells in a monolayer", "test": "Cytotoxicity assay, resazurin method, Caco-2 cells in a monolayer", "type": "cell-based, human", "conditions": "Caco-2 monolayer, peptide 0.8 µM, 24 h", "method": "(§2) The cytotoxic effects of the tobacco defensin NaD1 towards PBMCs or Caco-2 cells were investigated in 96-well plates using the resazurin method as previously described. In brief, 4 × 10^5 per well Caco-2 cells not in a monolayer as well as Caco-2 cells in a monolayer in DMEM/F12 (1:1) medium with 10% FBS or 2 × 10^6 PBMCs per well in RPMI-1640 also with 10% FBS were incubated with serial dilutions of NaD1 at final concentrations from 0.39 to 50 μM or from 2.1 to 180 μM for 24 h. After that, resazurin (Sigma, St. Louis, MO, USA) was added at a final concentration of 70 µM and the plates were incubated overnight (16–18 h). Untreated cells and cells treated by non-ionogenic detergent Triton X-100 were used as negative and positive controls, respectively. […] The cell viability was estimated by resorufin fluorescence registered at […] via the following equation: cell viability (%) = (Fsample/Fcontrol) × 100%. Experiment was carried out twice in duplicate."}, "[3]": {"system": "PBMCs", "test": "Cytotoxicity assay, resazurin method, PBMCs", "type": "cell-based, human", "conditions": "PBMCs, peptide 2.5 µM, 24 h, resazurin", "excerpt": "Peripheral blood mononuclear cells (PBMCs) from healthy donors were purchased from American Type Culture Collection (ATCC PCS-800-011). Primary monocytes were isolated from PBMCs by adherence to the plastic surface. For that, PBMCs were thawed, resuspended in RPMI-1640 culture medium (Corning, Corning, NY, USA) without serum at a concentration of 2 × 10^6 cells/mL, seeded into the wells of a 24-well plate and placed in a humidified CO2-intubator (CellXpert C170i, Eppendorf, Hamburg, Germany) for 1 h. After that, non-adherent cells were removed from the wells and attached monocytes were thoroughly washed with PBS and cultured in a CO2-intubator in complete RPMI-1640 containing 10% human serum (HS Type AB, Capricorn Scientific, Ebsdorfergrund, Germany) and 1×antibiotic-antimycotic (1×AA) solution (Sigma, St. Louis, MO, USA).\nas §2"}, "[4]": {"system": "THP-1 cells", "conditions": "peptide 1.2 µM; cited from earlier work", "method": "as §1"}, "[5]": {"system": "THP-1-derived macrophages", "test": "ELISA assay of cytokine production by THP-1-derived macrophages", "type": "cell-based, human", "method": "THP-1 (ATCC TIB-202) cells were thawed and cultured in complete RPMI-1640, containing 10% FBS (Capricorn Scientific) and 1×AA solution in CO2-intubator. Monocytic THP-1 cells were differentiated into resting M0 macrophages by stimulation for 24 h with 100 ng/mL phorbol 12-myristate 13-acetate (PMA) in complete RPMI-1640. Then, the attached macrophage-like cells were washed out with culture medium without serum and incubated for another 48 h in PMA-free complete culture medium with 10% HS and 1×AA solution.\nTHP-1-derived macrophages were seeded into the wells of a 24-well plate at a density of 2.7 × 10^5 cells/well in complete RPMI-1640 with 10% HS and 1×AA solution. Then, 24 h later, the culture medium was replaced by the fresh complete RPMI-1640 containing lipopolysaccharide from Escherichia coli 0111:B4 (LPS, Sigma, St. Louis, MO, USA) or zymosan from the cell wall of Saccharomyces cerevisiae (Serva, Heidelberg, Germany) at concentrations of 1 or 10 μg/mL, respectively; antimicrobial peptides NaD1, Psd1, LL-37 or HBD2 at concentrations of 2 or 0.2 µM; and combinations of antimicrobial peptides with LPS or zymosan at the same concentrations. Insoluble zymosan was resuspended in sterile water and sonicated twice for 30 s; after that, the stock solution was heated to 80 °C for 20 min. Peptides were added 2 h before stimulation with LPS and zymosan. After that, PAMPs solutions were added and the cells were cultured for 24 h. Complete RPMI-1640 only was used in the control wells. Culture supernatants were collected and stored at −70 °C prior to the cytokines’ assessment.\nThe production of pro- and anti-inflammatory cytokines IL-1β, IL-6, TNF-α and IL-10 by stimulated and non-stimulated THP-1-derived macrophages were estimated by using ELISA kits (Vector-Best, Koltsovo, Russia). Briefly, 96-well plates with adsorbed monoclonal antibodies to the corresponding cytokine were used. Undiluted or diluted 5, 20 or 80 times in the case of IL-10, TNF-α and IL-1β or IL-6, respectively, culture supernatants from the wells of 24-well plates were taken for analysis. Biotinylated polyclonal antibodies to cytokines, streptavidin conjugated to HRP and TMB substrate were further used for the detection of immune complexes. A panel of calibration solutions containing different concentrations of cytokines was used in each experiment. Experiments were performed using two biological and two technical repeats. The release of the cytokines in the control and experimental samples was compared with an unpaired two-sample t-test using GraphPad Prism v.8.0.1 (GraphPad Software, Inc., San Diego, CA, USA). The p values ≤ 0.05 were considered significant."}, "[6]": {"system": "Caco-2 polarized monolayer", "conditions": "cited from earlier work"}, "[7]": {"system": "primary monocytes", "conditions": "cited from earlier work", "excerpt": "Then, primary human monocytes were chosen to study the immunomodulatory properties of NaD1. Monocytes circulating in the blood can be recruited and extravasated into tissues during inflammatory processes. Moreover, the recruitment of monocytes to the sites of inflammation is critical for host defense not only when infected, but also in the case of sterile injury. In the case of monocytes, NaD1 at the same concentration induced a decrease of chemotactic CXCL1/GROα and CXCL8/IL-8 levels and elevation of the fibroblast growth factor 2 (FGF-2) production; however, these changes were ..."}, "[8]": {"system": "mature DCs", "conditions": "previous study; cited from earlier work", "excerpt": "In the next step of this work, we studied the immunomodulatory properties of NaD1 by using primary monocytes and monocyte-derived immature dendritic cells (DCs). DCs represent a type of antigen-presenting cells, playing a key role in adaptive immune response. Their primary functions involve phagocytosis, processing and presentation of captured antigens to T cells. In most tissues, they are present in a state known as “immature” DCs, unable to activate and stimulate T lymphocytes; their activation and maturation typically starts when DCs identify danger signals. This is why immature DCs ..."}, "[9]": {"conditions": "peptide 2 µM 2 h before LPS 1 μg/mL, 24 h, vs LPS alone"}, "[10]": {"conditions": "peptide 2 µM 2 h before zymosan 10 μg/mL, 24 h, vs zymosan alone"}},
  "data": [
    {"compound": "CC[C@H](C)[C@H](NC(=O)[C@H](CCCCN)NC(=O)[C@H](CCC(=O)O)NC(=O)[C@H](CCCCN)NC(=O)[C@H](CO)NC(=O)[C@H](CCCCN)NC(=O)[C@H](CCCNC(=N)N)NC(=O)[C@H](Cc1ccccc1)NC(=O)[C@H](Cc1ccccc1)NC(=O)[C@H](CC(=O)O)NC(=O)CNC(=O)[C@H](CC(C)C)NC(=O)[C@@H](N)CC(C)C)C(=O)NCC(=O)N[C@@H](CCCCN)C(=O)N[C@@H](CCC(=O)O)C(=O)N[C@@H](Cc1ccccc1)C(=O)N[C@@H](CCCCN)C(=O)N[C@@H](CCCNC(=N)N)C(=O)N[C@H](C(=O)N[C@H](C(=O)N[C@@H](CCC(N)=O)C(=O)N[C@@H](CCCNC(=N)N)C(=O)N[C@H](C(=O)N[C@@H](CCCCN)C(=O)N[C@@H](CC(=O)O)C(=O)N[C@@H](Cc1ccccc1)C(=O)N[C@@H](CC(C)C)C(=O)N[C@@H](CCCNC(=N)N)C(=O)N[C@@H](CC(N)=O)C(=O)N[C@@H](CC(C)C)C(=O)N[C@H](C(=O)N1CCC[C@H]1C(=O)N[C@@H](CCCNC(=N)N)C(=O)N[C@H](C(=O)N[C@@H](CCC(=O)O)C(=O)N[C@@H](CO)C(=O)O)[C@@H](C)O)C(C)C)[C@@H](C)CC)C(C)C)[C@@H](C)CC", "note": "[LL-37]", "values": [
      {"measurement": "Toxic effect on PBMCs", "setting": "[1]; peptide 12 µM", "value": "toxic effect"}
    ]},
    {"compound": "CC[C@H](C)[C@H](NC(=O)CN)C(=O)NCC(=O)N[C@@H](C)C(=O)N[C@H](C(=O)N[C@@H](CC(C)C)C(=O)N[C@@H](CCCCN)C(=O)N[C@H](C(=O)N[C@@H](CC(C)C)C(=O)N[C@H](C(=O)N[C@H](C(=O)NCC(=O)N[C@@H](CC(C)C)C(=O)N1CCC[C@H]1C(=O)N[C@@H](C)C(=O)N[C@@H](CC(C)C)C(=O)N[C@H](C(=O)N[C@@H](CO)C(=O)N[C@@H](Cc1c[nH]c2ccccc12)C(=O)N[C@H](C(=O)N[C@@H](CCCCN)C(=O)N[C@@H](CCCNC(=N)N)C(=O)N[C@@H](CCCCN)C(=O)N[C@@H](CCCNC(=N)N)C(=O)N[C@@H](CCC(N)=O)C(=O)N[C@@H](CCC(N)=O)C(N)=O)[C@@H](C)CC)[C@@H](C)CC)[C@@H](C)O)[C@@H](C)O)C(C)C)C(C)C", "note": "[melittin, reference compound]", "values": [
      {"measurement": "Cell viability", "setting": "[2]", "value": "a decrease in cell viability was observed"},
      {"measurement": "Cell death", "setting": "[3]", "value": "approximately 50%"}
    ]},
    {"compound": "HBD2: Recombinant human β-defensin 2 (UNIPROT O15263), expressed in E. coli (GIGDPVTCLKSGAICHPVFCPRRYKQIGTCGLPGTKCCKKP; UniProt O15263 24-64, looked up) [reference compound]", "values": [
      {"measurement": "Level of THP-1 cell death", "setting": "[4]", "value": "did not increase the level of THP-1 cell death"},
      {"measurement": "LPS-induced IL-6 production", "setting": "[5]; [9]", "value": "increased the LPS-stimulated production of IL-6"},
      {"measurement": "Zymosan-induced IL-6 production", "setting": "[5]; [10]", "value": "slight decrease in the zymosan-induced production of IL-6"}
    ]},
    {"compound": "Psd1: Pea defensin Psd1 (UNIPROT P81929), obtained as described previously (KTCEHLADTYRGVCFTNASCDDHCKNKAHLISGTCHNWKCFCTQNC; UniProt P81929 1-46, looked up) [reference compound]", "values": [
      {"measurement": "Papp A→B compared with NaD1", "setting": "[6]; Psd1 value from earlier work", "value": "nearly the same"},
      {"measurement": "Papp, secretory versus absorptive direction", "setting": "[6]", "value": "apparent permeability coefficients were higher in the secretory direction than in the absorptive one"},
      {"measurement": "Cytotoxic activity against PBMCs", "setting": "[1]; peptide 50 µM", "value": "no cytotoxic activity"},
      {"measurement": "Production of chemokines by monocytes", "setting": "[7]", "value": "increased the production of both CCL3/MIP-1α and CCL4/MIP-1β"},
      {"measurement": "Production of cytokines and chemokines by mature DCs", "setting": "[8]", "value": "induced an elevation of the production of cytokines IL-1RA, IL-5, IL-6, IL-10, IL-12, IL-15, IL-27 and TNFα and chemokines CXCL8/IL-8, CCL2/MCP-1 and CCL7/MCP-3"},
      {"measurement": "LPS-induced IL-6 production", "setting": "[5]; [9]", "value": "increased the LPS-stimulated production of IL-6"},
      {"measurement": "LPS-induced IL-10 production", "setting": "[5]; [9]", "value": "increased the LPS-induced production of IL-10"},
      {"measurement": "LPS-induced TNF-α secretion", "setting": "[5]; [9]", "value": "reduced the LPS-induced secretion of TNF-α"},
      {"measurement": "IL-1β production in the presence of zymosan", "setting": "[5]; [10]", "value": "slightly reduced the production of IL-1β"},
      {"measurement": "IL-10 production in the presence of zymosan", "setting": "[5]; [10]", "value": "increased the production of IL-10 in the presence of zymosan"},
      {"measurement": "IL-10 production, unstimulated macrophages", "setting": "[5]; peptide 2 µM alone, vs unstimulated control", "value": "induced the production of IL-10"}
    ]}
  ]
}
